{"source": "patent US20090143313A1", "about": "(priority 2004, published 2009)", "origin": "cited, not measured here", "key": {"[1]": {"tested_on": "5-FU-immune-suppressed animals", "conditions": "in vivo"}, "[2]": {"tested_on": "tuberculosis", "conditions": "human, in vivo"}, "[3]": {"tested_on": "spleen lymphocytes"}, "[4]": {"tested_on": "immunization with sheep red blood cells", "conditions": "in vivo"}, "[5]": {"tested_on": "bone marrow cells"}}, "data": [{"molecule": "N[C@H](CCC(=O)N[C@@H](Cc1c[nH]c2ccccc12)C(=O)O)C(=O)O", "note": "[SCV-07, γ-D-glutamyl-L-tryptophan]", "values": [{"measurement": "Immunostimulatory effect", "setting": "[1]", "value": "strong immunostimulatory effect"}, {"measurement": "Cavity healing and symptoms of tuberculosis", "setting": "[2]", "value": "positive effect"}, {"measurement": "Incidence of mycobacteria-negative sputum cultures", "setting": "[2]", "value": "increased"}, {"measurement": "Con-A-induced interleukin-2 (IL-2) production and IL-2 receptor expression by spleen lymphocytes", "setting": "[3]", "value": "increases"}, {"measurement": "Immunostimulatory effect", "setting": "[4]", "value": "strong immunostimulatory effect"}, {"measurement": "Expression of Thy-1.2 on bone marrow cells", "setting": "[5]", "value": "stimulates"}]}]}
